# In patent publication US8802678B2, “Carbonylated (aza) cyclohexanes as dopamine D3 receptor ligands” (Bioprojet, priority 2006, dated 2014):
row,melting point,Compound
1,202 °C,"Cc1ccc(N2CCN(CC[C@H]3CC[C@H](NC(=O)C4=CCCC4)CC3)CC2)c(F)c1 [Example 518, Cyclopent-1-enecarboxylic acid (4-{2-[4-(2-fluoro-4-methylphenyl)piperazin-1-yl]ethyl}cyclohexyl) amide]"
2,260 °C,CC(=O)CN1CCC(CCN2CCN(c3cccc(S(C)(=O)=O)c3)CC2)CC1.Cl.Cl
3,188 °C,O=C(CC1CC=CC1)N[C@H]1CC[C@H](CCN2CCN(c3ccccc3F)CC2)CC1 [Example 387]
4,132 °C,"CCCc1cccc(N2CCN(CC[C@H]3CC[C@H](NC(=O)CC#N)CC3)CC2)c1 [Example 271, 2-Cyano-N-(4-{2-[4-(3-propylphenyl)piperazin-1-yl]ethyl}cyclohexyl)acetamide]"
5,101 °C,CC(=O)CN1CCC(CCN2CC=C(c3ccc(Cl)cc3)CC2)CC1
6,129 °C,"N#CCC(=O)N[C@H]1CC[C@H](CCN2CCC(c3cccc(C(F)(F)F)c3)CC2)CC1 [Example 218, 2-Cyano-N-(4-{2-[4-(3-trifluoromethylphenyl)piperidin-1-yl]ethyl}cyclohexyl)acetamide]"
7,245 °C,CC(C)(C)OC(=O)CN1CCC(CCN2CCN(c3cccc(C(F)(F)F)c3)CC2)CC1.Cl.Cl
8,174 °C,N#CCC(=O)N[C@H]1CC[C@H](CCN2CC=C(c3cc(C(F)(F)F)cc(C(F)(F)F)c3)CC2)CC1
9,197 °C,"COCCCC(=O)N[C@H]1CC[C@H](CCN2CCN(c3ccc(F)c(C#N)c3)CC2)CC1 [Example 661, N-(4-{2-[4-(3-Cyano-4-fluorophenyl)piperazin-1-yl]ethyl}cyclohexyl)-4-methoxybutanamide]"
10,168 °C,"N#CCCCC(=O)N[C@H]1CC[C@H](CCN2CCN(c3cc(C(F)(F)F)ccc3Cl)CC2)CC1 [Example 404, N-(4-{2-[4-(2-Chloro-5-trifluoromethylphenyl)piperazin-1-yl]ethyl}cyclohexyl)-4-cyanobutanamide]"
11,244 °C,"NC(=O)CCC(=O)N[C@H]1CC[C@H](CCN2CCN(c3cccc(C(F)(F)F)c3F)CC2)CC1 [Example 459, N-(4-{2-[4-(2-Fluoro-3-trifluoro-methylphenyl)piperazin-1-yl]ethyl}cyclohexyl)succinamide]"
12,271 °C,CCOc1ccccc1N1CCN(CCC2CCN(CC(C)=O)CC2)CC1.Cl.Cl
13,134 °C,"O=C(N[C@H]1CC[C@H](CCN2CCN(c3cccc(C(F)(F)F)c3)CC2)CC1)C(F)(F)F [Example 38, 2,2,2-Trifluoro-N-(4-{2-[4-(3-trifluoromethylphenyl)piperazin-1-yl]ethyl}cyclohexyl)acetamide]"
14,264 °C,CC(=O)CN1CCC(CCN2CCN(c3cccc4c3OCO4)CC2)CC1.Cl.Cl
15,144 °C,"CC(C)OCC(=O)N[C@H]1CC[C@H](CCN2CCN(c3cccc(C(F)(F)F)c3C#N)CC2)CC1 [Example 101, N-(4-{2-[4-(2-Cyano-3-trifluoromethylphenyl)piperazin-1-yl]ethyl}cyclohexyl)-2-isopropoxyacetamide]"
16,270 °C,CCOCC(=O)N1CCC(CCN2CCN(c3cccc4c3CCC4)CC2)CC1.Cl
17,119 °C,"CC(C)C(O)c1cccc(N2CCN(CC[C@H]3CC[C@H](NC(=O)CC#N)CC3)CC2)c1 (some centres unmarked) [Example 575, 2-cyano-N-[4-(2-{4-[3-(1-hydroxy-2-methylpropyl)phenyl]piperazin-1-yl}ethyl)cyclohexyl]acetamide]"
18,125 °C,"O=C(C=C1CCC(CCN2CCN(c3ccccc3F)CC2)CC1)NCC(F)(F)F (centres unmarked) [Example 303, 2-(4-{2-[4-(2-Fluorophenyl)-piperazin-1-yl]ethyl}cyclo-hexylidene)-N-(2,2,2-trifluoroethyl)acetamide]"
19,83 °C,"CCC(O)c1cccc(N2CCN(CCC3CCN(CC(C)=O)CC3)CC2)c1 (centres unmarked) [Example 607, 1-[4-(2-{4-[3-(1-Hydroxypropyl)phenyl]piperazin-1-yl}ethyl)piperidin-1-yl]propan-2-one]"
20,130 °C,"CCc1cccc(N2CCN(CC[C@H]3CC[C@H](NC(=O)CCCOC)CC3)CC2)c1 [Example 560, N-(4-{2-[4-(3-Ethylphenyl)piperazin-1-yl]ethyl}cyclohexyl)-4-methoxybutanamide]"
21,187 °C,"N#CCC(=O)N[C@H]1CC[C@H](CCN2CCN(c3ccc(Cl)c(C(F)(F)F)c3)CC2)CC1 [Example 360, N-(4-{2-[4-(4-Chloro-3-trifluoromethylphenyl)piperazin-1-yl]ethyl}cyclohexyl)-2-cyanoacetamide]"
22,281 °C,CC(=O)CN1CCC(CCN2CCN(c3cc(F)ccc3C)CC2)CC1.Cl.Cl
23,179 to 182 °C,"Cc1c(Cl)cccc1N1CCN(CC[C@H]2CC[C@H](NC(=O)CC#N)CC2)CC1 [Example 136, N-(4-{2-[4-(3-Chloro-2-methylphenyl)piperazin-1-yl]ethyl}cyclohexyl)-2-cyanoacetamide]"
24,220 °C,"Cc1ccc(N2CCN(CC[C@H]3CC[C@H](NC(=O)C4=CCCC4)CC3)CC2)cc1F [Example 537, Cyclopent-1-enecarboxylic acid (4-{2-[4-(3-fluoro-4-methylphenyl)piperazin-1-yl]ethyl}cyclohexyl) amide]"

row,melting point,Compound
1,125 °C,"CCOCC(=O)N[C@H]1CC[C@H](CCN2CCN(c3cccc(C(F)(F)F)c3F)CC2)CC1 [Example 478, 2-Ethoxy-N-(4-{2-[4-(2-fluoro-3-trifluoromethylphenyl)piperazin-1-yl]ethyl}cyclohexyl)acetamide]"
2,192 °C,"Cc1ccc(N2CCN(CC[C@H]3CC[C@H](NC(=O)CC(F)(F)F)CC3)CC2)cc1Cl [Example 492, N-(4-{2-[4-(3-Chloro-4-methylphenyl)piperazin-1-yl]ethyl}cyclohexyl)-3,3,3-trifluoropropanamide]"
3,299 °C,CC(=O)CN1CCC(CCN2CCN(c3cc(C(F)(F)F)ccc3Cl)CC2)CC1.Cl.Cl
4,204 °C,"O=C(N[C@H]1CC[C@H](CCN2CCN(c3ccccc3F)CC2)CC1)C1CC=CC1 [Example 70, Cyclopent-3-enecarboxylic acid (4-{2-[4-(2-fluorophenyl)-piperazin-1-yl]ethyl}-cyclohexyl)amide trans/cis 95/5]"
5,180 °C,"COc1ccc(Cl)cc1N1CCN(CC[C@H]2CC[C@H](NC(=O)CC#N)CC2)CC1 [Example 176, N-(4-{2-[4-(5-Chloro-2-methoxyphenyl)piperazin-1-yl]ethyl}cyclohexyl)-2-cyanoacetamide]"
6,316 °C,CCc1ccccc1C1=CCN(CCC2CCN(CC(C)=O)CC2)CC1.Cl.Cl
7,147 °C,"COc1ccccc1N1CCN(CC[C@H]2CC[C@H](NC(=O)CCCC#N)CC2)CC1 [Example 382, 4-Cyano-N-(4-{2-[4-(2-methoxyphenyl)piperazin-1-yl]ethyl}cyclohexyl)butanamide]"
8,218 °C,"N#CCC(=O)N[C@H]1CC[C@H](CCN2CCN(c3ccc(Cl)cc3F)CC2)CC1 [Example 359, N-(4-{2-[4-(4-Chloro-2-fluorophenyl)piperazin-1-yl]ethyl}cyclohexyl)-2-cyanoacetamide]"
9,150 °C,"CC(F)(F)c1cccc(N2CCN(CC[C@H]3CC[C@H](NC(=O)CC#N)CC3)CC2)c1 [Example 281, 2-Cyano-N-[4-(2-{4-[3-(1,1-difluoroethyl)phenyl]piperazin-1-yl}ethyl)cyclohexyl]acetamide trans/cis 90/10]"
10,167 °C,"COCCCC(=O)N[C@H]1CC[C@H](CCN2CCN(c3cc(C)cc(Cl)c3)CC2)CC1 [Example 578, N-(4-{2-[4-(3-Chloro-5-methylphenyl)piperazin-1-yl]ethyl}cyclohexyl)-4-methoxybutanamide]"
11,249 °C,CC(=O)CN1CCC(CCN2CCN(c3ccc(F)c(F)c3)CC2)CC1.Cl.Cl
12,220 °C,"Cc1ccc(N2CCN(CC[C@H]3CC[C@H](NC(=O)CC#N)CC3)CC2)cc1Cl [Example 369, N-(4-{2-[4-(3-Chloro-4-methylphenyl)piperazin-1-yl]ethyl}cyclohexyl)-2-cyanoacetamide]"
13,202 °C,"N#CCC(=O)N[C@H]1CC[C@H](CCN2CCN(c3c(F)c(F)c(F)c(F)c3F)CC2)CC1 [Example 753, 2-Cyano-N-{4-[2-(4-pentafluorophenylpiperazin-1-yl)ethyl]cyclohexyl}acetamide]"
14,157 °C,"N#CCCCC(=O)N[C@H]1CC[C@H](CCN2CCN(c3cccc4c3CCC4)CC2)CC1 [Example 457, 4-Cyano-N-{4-[2-(4-indan-4-ylpiperazin-1-yl)ethyl]cyclohexyl}butanamide]"
15,280 °C,CC(=O)CN1CCC(CCN2CCN(c3cc(C#N)cc(C(F)(F)F)c3)CC2)CC1.Cl.Cl
16,180 °C,"N#CCCCC(=O)N[C@H]1CC[C@H](CCN2CCN(c3cc(F)c(F)c(F)c3F)CC2)CC1 [Example 98, 4-Cyano-N-(4-{2-[4-(2,3,4,5-tetrafluorophenyl)piperazin-1-yl]ethyl}cyclohexyl)butyramide]"
17,170 °C,"CCOC(=O)Nc1cccc(N2CCN(CC[C@H]3CC[C@H](NC(=O)CC#N)CC3)CC2)c1 [Example 217, [3-(4-{2-[4-(2-Cyanoacetylamino)cyclohexyl]ethyl}piperazin-1-yl)phenyl] carbamic acid ethyl ester]"
18,282 °C,CC(=O)CN1CCC(CCN2CC=C(c3cc(C(F)(F)F)ccc3F)CC2)CC1.Cl.Cl
19,198 °C,"N#CCC(=O)N[C@H]1CC[C@H](CCN2CCN(c3ccc(F)c(Cl)c3F)CC2)CC1 [Example 551, N-(4-{2-[4-(3-Chloro-2,4-difluorophenyl)piperazin-1-yl]ethyl}cyclohexyl)-2-cyanoacetamide]"
20,260 °C,COc1ccc(C)cc1N1CCN(CCC2CCN(CC(C)=O)CC2)CC1.Cl.Cl
21,314 °C,Cl.Cl.N#Cc1cccc(N2CCN(CC[C@H]3CC[C@H](NC(=O)[C@@H]4CCCN4)CC3)CC2)c1 (stereo in doubt)
22,287 °C,CC(=O)CN1CCC(CCN2CCN(c3cc(C(F)(F)F)nc(C(C)(C)C)n3)CC2)CC1.Cl.Cl.Cl
23,179 °C,"N#CCCCC(=O)N[C@H]1CC[C@H](CCN2CCN(c3cc(Cl)ccc3Cl)CC2)CC1 [Example 371, 4-Cyano-N-(4-{2-[4-(2,5-dichlorophenyl)piperazin-1-yl]ethyl}cyclohexyl)butanamide]"
